Measurements: patent US8937068B2, “Pyridopyrazine derivatives and their use” (Zentaris GmbH, priority 2005, dated 2015)

Key:
[1] = test system: Hct116; assay: XTT assay, anti-proliferative effect, Hct116; format: cell-based; settings: 45 h incubation
Method: (§1) The principle of this test is based on the intracellular reduction of the tetrazolium dye XTT (sodium 3′-[1-(phenylaminocarbonyl)-3,4-tetrazolium]-bis(4-methoxy-6-nitro)benzene sulfonic acid, Sigma) to a formazan dye by mitochondrial dehydrogenases. The dye is only formed by metabolically active cells and its photometrically measurable intensity is a quantitative indicator for the presence of living cells. The reduction of dye formation by incubation of the cells with substances serves as a parameter for the anti-proliferative effect.
(§2) The tumour cell lines (ATCC) were injected into 96-well microtitre plates in a defined cell number (5000 cells/well for BxPC3 and Hct116; 10000 cells/well for MDA MB468) and then incubated overnight in an incubator at 37° C., 5% CO2 and 95% air humidity. The test substances were prepared as stock solutions (10 mM) in DMSO. […] The cell plates were then incubated for 45 h in an incubator at 37° C., 5% CO2 and 95% air humidity.
(§3) For the detection reaction the substrate XTT was mixed with PMS (N-Methyl dibenzopyrazine methylsulfate, Sigma) and added to the cells so that a final concentration of 325 μg XTT/ml and 2.5 μg PMS/ml was obtained. It was then incubated for 3 h at 37° C., 95% air humidity. The formazan salt formed by the cellular dehydrogenases could then be quantified by adsorption at 490 nm.
(§4) The % inhibition value was evaluated by means of the following formula from the values for the optical densities measured in each case at 490 nm:
(§5) Eight determinations were made for each control and two for the substance samples. The 0% control contains no cells, the 100% control (proliferation control) contains no test substance. The EC50 values were determined using GraphPadPrism.

[2] = biological target: p38alpha (Homo sapiens (Human), UniProt Q16539); assay: Cell-free kinase assay (ALPHA technology), p38alpha; format: biochemical; settings: 10 μM ATP
[3] = biological target: PI3Kalpha (Homo sapiens (Human), UniProt P42336); assay: Cell-free kinase assay (ALPHA technology), PI3Kalpha; format: biochemical; settings: 100 μM ATP
Outline: (§6)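 Recombinant human GST- or His-tagged kinases were assayed for 1 h with ALPHA bead detection read after overnight standing. For PI3Kalpha: 1 ng enzyme, 100 μM ATP, 20 μM PIP2 in Hepes pH 7.4, detected by GST:Grp1/biotin-PIP3 competition. The p38alpha and Jnk assays followed the MAPK format (10 μM ATP, biotin-MBP, anti-phospho-MBP); IC50 from %-inhibition.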

[4] = biological target: Erk2 (Homo sapiens, UniProt P28482); assay: Cell-free kinase assay (ALPHA technology), Erk2; format: biochemical; settings: 10 μM ATP
Outline: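 Recombinant tagged Erk2 kinase reactions were stopped with ALPHA bead mix […]. The signal was read after standing overnight. Controls were run in eight replicates and compounds in duplicate, and IC50 was fitted.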

[5] = test system: MDA-MB468; assay: XTT assay, anti-proliferative effect, MDA-MB468; format: cell-based; settings: 45 h incubation
Method: as §1, §2, §3, §4, §5

[6] = test system: Jnk1 + Jnk2; assay: Cell-free kinase assay (ALPHA technology), Jnk1 + Jnk2; format: biochemical, human; settings: 10 μM ATP
Outline: as §6

[7] = test system: PI3K → pAkt; assay: Cellular substrate phosphorylation (Western Blotting), PI3K substrate pAkt; format: cell-based; settings: for inhibition at 50 µM: 5 h; for PI3K inhibition / inhibition of the PI3K substrate p-Akt (in words): Western Blotting
Method: (§7) This method can be used to predict whether the kinase modulator under study also achieves the desired effect in a cellular context, i.e. in this case, a substrate protein downstream of the target kinase is investigated for its phosphorylation status. For this purpose, the cells incubated with substance are lysed and the total protein separated on a reducing polyacrylamide gel. The proteins are then transferred to a PVDF membrane by means of Western Blotting and the substrate bands sought are made visible with specific antibodies and a suitable detection method. The substrate proteins downstream of the target kinases are detected simultaneously with a respectively special anti-phospho-antibody and at the same time a total antibody which recognizes the substrate total protein. This simultaneous measurement can be made using the duplex technology of the ODYSSEY imagers (LiCOR). The intensity of the total substrate bands is used for normalising or quantifying the phosphorylation inhibition or activation.
(§8) Suitable tumour cell lines (e.g. BxPC3, Hct116 or MDA MB468) were injected into six-well microtitre plates in a defined cell number (e.g. 350 000 cells/well for BxPC3 and Hct116) in the respective standard complete medium and then incubated overnight at 37° C., 5% CO2 and 95% air humidity. The cells were then incubated for a further 24 h under serum-reduced conditions i.e. in the respective medium but with only 0.25% serum. The test substances were prepared as stock solutions (10 mM) in DMSO and incubated with the cells in final concentrations of 5, 15.8 and 50 μM for 5 h. This was followed by cell lysis in 25 mM Tris, 150 mM NaCl, 10 mM Na-pyrophosphate, 2 mM EGTA, 25 mM β-glycerophosphate, 25 mM NaF, 10% glycerine, 0.75% NP-40, 100 μM NaVO4 buffer. Following protein quantification by means of BCA (bicinchonic acid protein assay kit, Sigma) Assay, protein quantities of about 20 μg per track were separated on a Lämmli polyacrylamide gel and then transferred to a PVDF membrane (Millipore) by means of Semi-Dry Western-Blotting at 0.8 mA/cm^2 for 1 h. This was followed by pre-hybridisation of the membrane for 1 hour in I-block reagent (Applied Biosystems) and incubation overnight with the specific antibodies. To determine the Erk and PI3K inhibition, the respectively downstream substrates Rsk1 were detected with the total antibody (Rsk #sc-231g C-21, Santa Cruz) and the phospho-antibody (Phospho-p90RSK (S380) #9341, NEB Cell Signalling) and Akt was detected with the total antibody (Akt1 #sc-1618 C-20, Santa Cruz) and the phospho-antibody (Phospho-Akt (Ser 473) #9271, NEB Cell Signaling). After washing the membrane, secondary antibody incubation was carried out with anti-rabbit IR Dye 800 (#611-732-127, Rockland) for the phospho-antibody and anti-goat Alexa Fluor 680 (#A-21081, Molecular Probes) for the total protein-antibody. After incubating for 30 min at room temperature in the dark, the hybridisation of the detection antibody on the membrane was detected by scanning in the ODYSSEY imager (LiCOR).
(§9) The reduction of the fluorescence intensity of the phospho-substrate bands (pRsk and pAkt) is given in the table below as % inhibition and relates to the following formula:
(§10) The band intensity (fluorescence intensity) of the respective non-inhibited (without substance) phospho-substrates was used as 100% control.

[8] = test system: Erk → pRsk; assay: Cellular substrate phosphorylation (Western Blotting), Erk substrate pRsk; format: cell-based; settings: for inhibition at 50 µM: 5 h; for Erk inhibition / inhibition of the Erk substrate p-Rsk (in words): Western Blotting
Method: as §7, §8, §9, §10

[9] = test system: BxPC3; assay: XTT assay, anti-proliferative effect, BxPC3; format: cell-based; settings: Homo sapiens, BXPC-3; 45 h incubation
Method: as §1, §2, §3, §4, §5

[10] = test system: tumour cell lines (BxPC3, Hct116, MDA MB468); assay: XTT assay, anti-proliferative effect on the cell lines used; format: cell-based; settings: compared to the Exemplary Embodiments
Method: as §1
The tumour cell lines (ATCC) were injected into 96-well microtitre plates in a defined cell number (5000 cells/well for BxPC3 and Hct116; 10000 cells/well for MDA MB468) and then incubated overnight in an incubator at 37° C., 5% CO2 and 95% air humidity. […]
For the detection reaction the substrate XTT was mixed with PMS (N-Methyl dibenzopyrazine methylsulfate, Sigma) and added to the cells so that a final concentration of 325 μg XTT/ml and 2.5 μg PMS/ml was obtained. […] The formazan salt formed by the cellular dehydrogenases could then be quantified by adsorption at 490 nm.
as §4
Eight determinations were made for each control and two for the substance samples. […] The EC50 values were determined using GraphPadPrism.

Chain of PI3Kalpha (P42336 whole entry): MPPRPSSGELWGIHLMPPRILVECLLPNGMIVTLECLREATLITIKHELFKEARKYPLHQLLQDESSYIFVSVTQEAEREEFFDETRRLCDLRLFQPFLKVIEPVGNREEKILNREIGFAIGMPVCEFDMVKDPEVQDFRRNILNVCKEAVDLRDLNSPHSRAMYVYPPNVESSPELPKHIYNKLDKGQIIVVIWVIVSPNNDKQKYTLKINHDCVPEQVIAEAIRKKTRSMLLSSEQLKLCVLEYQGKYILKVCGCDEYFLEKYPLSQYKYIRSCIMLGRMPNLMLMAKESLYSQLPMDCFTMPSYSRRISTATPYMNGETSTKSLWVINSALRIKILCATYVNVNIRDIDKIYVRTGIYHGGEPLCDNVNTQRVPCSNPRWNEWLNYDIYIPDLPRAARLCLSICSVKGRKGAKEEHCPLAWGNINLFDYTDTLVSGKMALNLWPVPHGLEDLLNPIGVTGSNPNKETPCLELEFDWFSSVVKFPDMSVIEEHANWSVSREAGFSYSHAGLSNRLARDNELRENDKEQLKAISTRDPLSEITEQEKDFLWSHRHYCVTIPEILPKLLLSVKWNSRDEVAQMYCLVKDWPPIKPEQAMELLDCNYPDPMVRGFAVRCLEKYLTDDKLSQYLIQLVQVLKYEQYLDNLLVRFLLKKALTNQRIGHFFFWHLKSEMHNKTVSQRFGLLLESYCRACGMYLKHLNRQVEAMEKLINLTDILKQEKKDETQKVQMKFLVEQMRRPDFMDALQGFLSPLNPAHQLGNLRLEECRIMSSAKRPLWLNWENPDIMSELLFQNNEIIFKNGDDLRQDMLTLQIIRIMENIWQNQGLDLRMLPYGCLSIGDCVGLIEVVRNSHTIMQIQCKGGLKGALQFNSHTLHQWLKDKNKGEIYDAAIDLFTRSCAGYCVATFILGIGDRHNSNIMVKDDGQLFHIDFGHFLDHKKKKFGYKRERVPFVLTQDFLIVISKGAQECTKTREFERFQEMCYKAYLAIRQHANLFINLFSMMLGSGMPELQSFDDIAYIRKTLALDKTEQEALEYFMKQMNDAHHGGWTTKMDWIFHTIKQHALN
Chain of PI3Kalpha (P27986 whole entry partner): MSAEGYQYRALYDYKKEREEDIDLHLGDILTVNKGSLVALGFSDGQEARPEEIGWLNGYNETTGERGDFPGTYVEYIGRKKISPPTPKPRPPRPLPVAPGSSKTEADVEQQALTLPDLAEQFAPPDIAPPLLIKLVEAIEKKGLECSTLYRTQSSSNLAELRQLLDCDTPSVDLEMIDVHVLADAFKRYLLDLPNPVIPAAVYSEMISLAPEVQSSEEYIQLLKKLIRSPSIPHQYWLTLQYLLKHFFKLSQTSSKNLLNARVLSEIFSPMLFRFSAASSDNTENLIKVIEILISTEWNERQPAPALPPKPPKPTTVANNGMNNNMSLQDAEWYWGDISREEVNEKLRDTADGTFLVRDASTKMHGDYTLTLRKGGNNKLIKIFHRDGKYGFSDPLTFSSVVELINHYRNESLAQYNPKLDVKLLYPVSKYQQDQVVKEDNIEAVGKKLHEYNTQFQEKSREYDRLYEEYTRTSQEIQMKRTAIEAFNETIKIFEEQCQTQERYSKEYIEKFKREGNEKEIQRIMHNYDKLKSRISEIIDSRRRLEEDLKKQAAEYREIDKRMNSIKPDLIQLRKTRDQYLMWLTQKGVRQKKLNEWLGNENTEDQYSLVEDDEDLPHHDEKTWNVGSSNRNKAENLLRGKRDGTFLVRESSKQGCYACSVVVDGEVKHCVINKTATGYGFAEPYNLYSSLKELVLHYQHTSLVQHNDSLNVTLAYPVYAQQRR
Chain of p38alpha (Q16539 whole entry): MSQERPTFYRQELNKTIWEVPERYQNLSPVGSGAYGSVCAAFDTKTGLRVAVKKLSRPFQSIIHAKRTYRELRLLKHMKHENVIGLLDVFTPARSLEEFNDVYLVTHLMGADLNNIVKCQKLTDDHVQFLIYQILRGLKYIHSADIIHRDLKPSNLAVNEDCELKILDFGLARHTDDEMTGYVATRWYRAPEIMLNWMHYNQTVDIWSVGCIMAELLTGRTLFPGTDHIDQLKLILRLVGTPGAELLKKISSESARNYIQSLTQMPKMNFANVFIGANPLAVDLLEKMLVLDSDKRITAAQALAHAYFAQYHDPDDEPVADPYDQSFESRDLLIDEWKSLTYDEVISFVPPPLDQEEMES
Chain of Erk2 (P28482 2-360 limits assumed): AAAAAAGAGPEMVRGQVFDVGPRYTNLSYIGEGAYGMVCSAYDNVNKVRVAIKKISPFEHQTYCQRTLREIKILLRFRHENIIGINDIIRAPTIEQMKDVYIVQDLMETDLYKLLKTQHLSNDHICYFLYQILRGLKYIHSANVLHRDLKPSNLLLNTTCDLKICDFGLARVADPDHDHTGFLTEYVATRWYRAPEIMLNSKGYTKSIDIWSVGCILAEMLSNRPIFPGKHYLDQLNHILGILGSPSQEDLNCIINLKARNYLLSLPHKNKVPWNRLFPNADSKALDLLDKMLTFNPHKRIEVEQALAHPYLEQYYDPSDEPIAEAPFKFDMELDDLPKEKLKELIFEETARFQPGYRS

Structure (SMILES) | EC50 [1] [µM] | IC50 [2] [µM] | IC50 [3] [µM] | IC50 [4] [µM] | EC50 [5] [µM] | IC50 [6] [µM] | EC50 ([1]; Homo sapiens, HCT-116) [µM] | EC50 ([5]; Homo sapiens, MDA-MB-468) [µM] | inhibition at 50 µM [7] [%] | PI3K inhibition / inhibition of the PI3K substrate p-Akt (in words) [7] | inhibition at 50 µM [8] [%] | Erk inhibition / inhibition of the Erk substrate p-Rsk (in words) [8] | EC50 [9] [µM] | anti-proliferative effects on the cell lines used (in words) [10]
CCNC(=O)Nc1ccc2ncc(-c3ccc(O)c(OC)c3)nc2n1 [Compound 193] | 2.1 | > 100 | 2.2 | 0.212 | 4.4 | 1.5 |  |  |  |  |  |  |  | 
CCNC(=O)Nc1ccc2ncc(-c3ccc(OP(=O)(O)O)c(OC)c3)nc2n1 [Compound 169, Phosphoric acid-mono-{4-[6-(3-ethyl-ureido)-pyrido-[2,3-b]pyrazin-3-yl]-2-methoxy-phenyl}-ester] |  | > 100 | 3.7 | 2.7 |  | 9.5 | 2.8 | 5.7 |  |  |  |  |  | 
CCNC(=O)Nc1ccc2ncc(-c3cc(Cl)c(O)c(OC)c3)nc2n1 [Compound 175] | 4.4 | > 100 | 0.458 | 0.191 | > 50 | 2.5 |  |  |  |  |  |  |  | 
COC[C@H]1OC(=O)c2coc3c2[C@@]1(C)C1=C(C3=O)[C@@H]2CCC(=O)[C@@]2(C)C[C@H]1OC(C)=O [Wortmannin, reference compound] |  |  |  |  |  |  |  |  | 100 | complete inhibition of the PI3K substrate pAkt | 0 | no Erk or p-RSK inhibition |  | 
CCNC(=O)Nc1ccc2ncc(Nc3cccc(C)c3)nc2n1 [Compound 157, 1-Ethyl-3-(3-m-tolylamino-pyrido-[2,3-b]pyrazin-6-yl)-urea] |  | > 100 | 0.348 | > 100 |  | 28.5 | 4.4 | 3.5 |  |  |  |  | > 25 | 
CCNC(=O)Nc1ccc2ncc(Nc3ccc(O)cc3)nc2n1 [Compound 164, 1-Ethyl-3-[3-(4-hydroxy-phenylamino)-pyrido[2,3-b]pyrazin-6-yl]-urea] |  | > 100 | 0.444 | 19.6 |  | 24.3 | > 25 | 5.2 |  |  |  |  | > 50 | 
CCNC(=O)Nc1ccc2ncc(-c3ccc(OC)c(OC)c3)nc2n1 [Compound 153, 1-[3-(3,4-Dimethoxy-phenyl)-pyrido[2,3-b]pyrazin-6-yl]-3-ethyl-urea] |  | > 100 | 0.612 | 0.939 |  | 6.7 | 6 | 24 |  |  |  |  | > 25 | 
CCNC(=O)Nc1ccc2ncc(Nc3cc(C)cc(C)c3)nc2n1 [Compound 191, 1-[3-(3,5-Dimethyl-phenylamino)-pyrido[2,3-b]pyrazin-6-yl]-3-ethyl-urea] |  |  |  |  |  |  | 5.5 | 8.5 |  |  |  |  |  | 
O=c1cc(N2CCOCC2)oc2c(-c3ccccc3)cccc12 [Ly294002, reference compound] |  |  |  |  |  |  | 17 | 20 | 40 | only weak PI3K inhibition | 0 | no Erk inhibition | 25 | weak anti-proliferative effects
COc1cc(-c2cnc3ccc(NC(=O)NCCCCN4CCOCC4)nc3n2)ccc1O [Compound 176, 1-[3-(4-Hydroxy-3-methoxy-phenyl)-pyrido[2,3-b]pyrazin-6-yl]-3-(4-morpholin-4-yl-butyl)-urea] |  |  |  |  |  |  | 11.8 | 17 |  |  |  |  |  | 
CCNC(=O)Nc1ccc2ncc(-c3cc(Cl)c(O)c(OC)c3)nc2n1 [Compound 156, 1-[3-(3-Chloro-4-hydroxy-5-methoxy-phenyl)-pyrido[2,3-b]pyrazin-6-yl]-3-ethyl-urea] |  | > 100 | 0.425 | 0.138 |  | 2.1 | 1.4 | 15 |  |  |  |  | 8.9 | 
